Data from the NIST ThermoML archive (doi:10.1007/s10765-009-0602-6).
Several values for one entry are separate records, joined by “and”; a condition that tells them apart may be missing. Equal values may be shown once.

Test: xn = mol fraction of the nth substance listed
Details: Liquid, Other PVT measurement, x1 = 0.2607

N [ammonia] + O
Details | mass density
508.07 K | 671.23 kg/m3
519.77 K | 649.65 kg/m3
545.62 K | 594.32 kg/m3
561.03 K | 552.58 kg/m3
565.36 K | 540.25 kg/m3
580.18 K | 476.26 kg/m3
584.95 K | 456.58 kg/m3
585.31 K | 120.03 kg/m3
594.14 K | 147.43 kg/m3
595.16 K | 376.89 kg/m3
597.36 K | 160.07 kg/m3
597.56 K | 342.19 kg/m3
598.33 K | 329 kg/m3
598.96 K | 320.33 kg/m3
599.42 K | 312.91 kg/m3
599.57 K | 311.19 kg/m3
599.67 K | 310.95 kg/m3
599.78 K | 308.35 kg/m3
599.89 K | 307.35 kg/m3
600.02 K | 305.44 kg/m3
600.17 K | 303.47 kg/m3
600.29 K | 301.94 kg/m3
600.48 K | 299.79 kg/m3
600.63 K | 297.6 kg/m3
600.81 K | 295.31 kg/m3
600.93 K | 292.97 kg/m3
601.05 K | 291.16 kg/m3
601.16 K | 188.05 kg/m3
601.34 K | 285.71 kg/m3
601.75 K | 195.99 kg/m3
602.05 K | 271.09 kg/m3
602.26 K | 206 kg/m3
602.45 K | 260.02 kg/m3
602.74 K | 214.83 kg/m3
602.85 K | 218.92 kg/m3
602.91 K | 243.98 kg/m3
602.96 K | 230.31 kg/m3 and 224.53 kg/m3
602.97 K | 227.54 kg/m3
